Experimental data as given in patent publication US8535903B2, “Nitroreductase enzymatic substrates” (BioMerieux, S.A., priority 2009, dated 2013).

What was measured:
Assay in all cases: Detection of nitroreductase activity on Columbia medium with substrate
Type in all cases: cell-based
Conditions in all cases: 24 hours at 37° C.
[1] = test system: Escherichia coli NCTC 10 418; design: key to Growth: NG: no growth; 0.5: low growth; 1: moderate growth; 2: good growth; key to Col. (color of the colonies): —: no color/fluorescence
Experimental: (§1) 40 mg of substrate were dissolved in 4 ml of dimethylsulfoxide and added to 400 ml of previously autoclaved Columbia medium. The medium was distributed in Petri dishes 90 mm in diameter at the rate of 20 ml per dish. Seventeen strains of microorganisms obtained from collections and belonging to various species of bacteria and yeasts are inoculated as spots of about 10 000 colony forming units. The media are incubated for 24 hours at 37° C. and then the colonies formed are examined visually and under a UV lamp at 365 nm.

[2] = test system: Providencia rettgeri NCTC 7 475; design: key to Growth: NG: no growth; 0.5: low growth; 1: moderate growth; 2: good growth; key to Col. (color of the colonies): —: no color/fluorescence
Experimental: as §1

[3] = test system: Enterobacter cloacae NCTC 11 936; design: key to Growth: NG: no growth; 0.5: low growth; 1: moderate growth; 2: good growth; key to Col. (color of the colonies): —: no color/fluorescence
Experimental: as §1

[4] = test system: Serratia marcescens NCTC 10 211; design: key to Growth: NG: no growth; 0.5: low growth; 1: moderate growth; 2: good growth; key to Col. (color of the colonies): —: no color/fluorescence
Experimental: as §1

[5] = test system: Bacillus subtilis NCTC 9 372; design: key to Growth: NG: no growth; 0.5: low growth; 1: moderate growth; 2: good growth; key to Col. (color of the colonies) / Fluo. (fluorescence of the colonies): —: no color/fluorescence
Experimental: as §1

[6] = test system: Enterococcus faecium NCTC 7 171; design: key to Growth: NG: no growth; 0.5: low growth; 1: moderate growth; 2: good growth; key to Col. (color of the colonies) / Fluo. (fluorescence of the colonies): —: no color/fluorescence
Experimental: as §1

[7] = test system: Staphylococcus aureus NCTC 6 571; design: key to Growth: NG: no growth; 0.5: low growth; 1: moderate growth; 2: good growth; key to Col. (color of the colonies) / Fluo. (fluorescence of the colonies): —: no color/fluorescence
Experimental: as §1

[8] = test system: Pseudomonas aeruginosa NCTC 10 662; design: key to Growth: NG: no growth; 0.5: low growth; 1: moderate growth; 2: good growth; key to Col. (color of the colonies) / Fluo. (fluorescence of the colonies): —: no color/fluorescence
Experimental: as §1

[9] = test system: Staphylococcus epidermidis NCTC 11 047; design: key to Growth: NG: no growth; 0.5: low growth; 1: moderate growth; 2: good growth; key to Col. (color of the colonies) / Fluo. (fluorescence of the colonies): —: no color/fluorescence
Experimental: as §1

[10] = test system: Candida glabrata NCPF 3 943; design: key to Growth: NG: no growth; 0.5: low growth; 1: moderate growth; 2: good growth; key to Col. (color of the colonies) / Fluo. (fluorescence of the colonies): —: no color/fluorescence
Experimental: as §1

[11] = test system: Salmonella typhimurium NCTC 74; design: key to Growth: NG: no growth; 0.5: low growth; 1: moderate growth; 2: good growth; key to Col. (color of the colonies) / Fluo. (fluorescence of the colonies): —: no color/fluorescence
Experimental: as §1

[12] = test system: Enterococcus faecalis NCTC 775; design: key to Growth: NG: no growth; 0.5: low growth; 1: moderate growth; 2: good growth; key to Col. (color of the colonies) / Fluo. (fluorescence of the colonies): —: no color/fluorescence
Experimental: as §1

[13] = test system: Listeria monocytogenes NCTC 11 994; design: key to Growth: NG: no growth; 0.5: low growth; 1: moderate growth; 2: good growth; key to Col. (color of the colonies) / Fluo. (fluorescence of the colonies): —: no color/fluorescence
Experimental: as §1

[14] = test system: Staphylococcus aureus NCTC 11 939; design: key to Growth: NG: no growth; 0.5: low growth; 1: moderate growth; 2: good growth; key to Col. (color of the colonies) / Fluo. (fluorescence of the colonies): —: no color/fluorescence
Experimental: as §1

[15] = test system: Candida albicans ATCC 90 028; design: key to Growth: NG: no growth; 0.5: low growth; 1: moderate growth; 2: good growth; key to Col. (color of the colonies) / Fluo. (fluorescence of the colonies): —: no color/fluorescence
Experimental: as §1

[16] = test system: Streptococcus pyogenes NCTC 8 306; design: key to Growth: NG: no growth; 0.5: low growth; 1: moderate growth; 2: good growth; key to Col. (color of the colonies) / Fluo. (fluorescence of the colonies): —: no color/fluorescence
Experimental: as §1

[17] = test system: Yersinia enterocolitica NCTC 11 176; design: key to Growth: NG: no growth; 0.5: low growth; 1: moderate growth; 2: good growth; key to Col. (color of the colonies) / Fluo. (fluorescence of the colonies): —: no color/fluorescence
Experimental: as §1

[18] = 40 mg substrate in 400 ml Columbia medium

SMILES: O=[N+]([O-])c1ccc(C=Cc2ccncc2)cc1 [4NSP, 4,4′-Nitrostyrylpyridine]
- Growth [1, 18]: 2
- Fluo. (fluorescence of the colonies) ([1]; UV lamp at 365 nm): Yellow
- Col. (color of the colonies) ([1]; examined visually): —
- Growth [2, 18]: 2
- Fluo. (fluorescence of the colonies) ([2]; UV lamp at 365 nm): Pale yellow
- Col. (color of the colonies) ([2]; examined visually): —
- Growth [3, 18]: 2
- Fluo. (fluorescence of the colonies) ([3]; UV lamp at 365 nm): Yellow
- Col. (color of the colonies) ([3]; examined visually): —
- Growth [4, 18]: 2
- Fluo. (fluorescence of the colonies) ([4]; UV lamp at 365 nm): Yellow
- Col. (color of the colonies) ([4]; examined visually): —
- Growth [5, 18]: NG
- Fluo. (fluorescence of the colonies) ([5]; UV lamp at 365 nm): —
- Col. (color of the colonies) ([5]; examined visually): —
- Growth [6, 18]: 1
- Fluo. (fluorescence of the colonies) ([6]; UV lamp at 365 nm): —
- Col. (color of the colonies) ([6]; examined visually): —
- Growth [7, 18]: 1
- Fluo. (fluorescence of the colonies) ([7]; UV lamp at 365 nm): —
- Col. (color of the colonies) ([7]; examined visually): —
- Growth [8, 18]: 2
- Fluo. (fluorescence of the colonies) ([8]; UV lamp at 365 nm): —
- Col. (color of the colonies) ([8]; examined visually): —
- Growth [9, 18]: 0.5
- Fluo. (fluorescence of the colonies) ([9]; UV lamp at 365 nm): —
- Col. (color of the colonies) ([9]; examined visually): —
- Growth [10, 18]: 1
- Fluo. (fluorescence of the colonies) ([10]; UV lamp at 365 nm): —
- Col. (color of the colonies) ([10]; examined visually): —
- Growth [11, 18]: 0.5
- Fluo. (fluorescence of the colonies) ([11]; UV lamp at 365 nm): —
- Col. (color of the colonies) ([11]; examined visually): —
- Growth [12, 18]: 1
- Fluo. (fluorescence of the colonies) ([12]; UV lamp at 365 nm): —
- Col. (color of the colonies) ([12]; examined visually): —
- Growth [13, 18]: 1
- Fluo. (fluorescence of the colonies) ([13]; UV lamp at 365 nm): —
- Col. (color of the colonies) ([13]; examined visually): —
- Growth [14, 18]: 1
- Fluo. (fluorescence of the colonies) ([14]; UV lamp at 365 nm): —
- Col. (color of the colonies) ([14]; examined visually): —
- Growth [15, 18]: NG
- Fluo. (fluorescence of the colonies) ([15]; UV lamp at 365 nm): —
- Col. (color of the colonies) ([15]; examined visually): —
- Growth [16, 18]: 1
- Fluo. (fluorescence of the colonies) ([16]; UV lamp at 365 nm): —
- Col. (color of the colonies) ([16]; examined visually): —
- Growth [17, 18]: 2
- Fluo. (fluorescence of the colonies) ([17]; UV lamp at 365 nm): —
- Col. (color of the colonies) ([17]; examined visually): —
